# According to article PMC12015262 (Nature Communications, 2025):
# Where two headings read alike, the source gives them in different places. Where a SMILES comes first, the peptide text is derived from it. Bridges are numbered along the chain shown (N, C = ends).
# Columns and labels:
# [1] = target: T1, recombinant human ETB receptor (Homo sapiens, UniProt P24530); type: binding; settings: Discussion
# T1 sequence (P24530 27-442): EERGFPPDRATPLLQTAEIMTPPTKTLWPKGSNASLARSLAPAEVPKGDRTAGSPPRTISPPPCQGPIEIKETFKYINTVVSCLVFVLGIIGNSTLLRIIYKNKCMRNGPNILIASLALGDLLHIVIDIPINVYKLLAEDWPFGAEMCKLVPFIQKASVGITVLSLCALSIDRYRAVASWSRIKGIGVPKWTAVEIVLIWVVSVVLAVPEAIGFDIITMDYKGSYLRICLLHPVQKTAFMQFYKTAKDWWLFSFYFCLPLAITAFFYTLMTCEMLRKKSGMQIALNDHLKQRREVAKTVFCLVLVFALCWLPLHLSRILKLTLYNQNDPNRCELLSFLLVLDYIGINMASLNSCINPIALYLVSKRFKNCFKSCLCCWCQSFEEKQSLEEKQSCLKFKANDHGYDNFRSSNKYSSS
# [2] = target: human endothelin type B receptor (ETB), in membranes of CHO cells (human) (UniProt P24530); assay: radioligand binding
# human recombinant ETAR = target: T2, human recombinant ETAR (Homo sapiens, UniProt P25101); settings: competition binding
# T2 sequence (P25101 21-427): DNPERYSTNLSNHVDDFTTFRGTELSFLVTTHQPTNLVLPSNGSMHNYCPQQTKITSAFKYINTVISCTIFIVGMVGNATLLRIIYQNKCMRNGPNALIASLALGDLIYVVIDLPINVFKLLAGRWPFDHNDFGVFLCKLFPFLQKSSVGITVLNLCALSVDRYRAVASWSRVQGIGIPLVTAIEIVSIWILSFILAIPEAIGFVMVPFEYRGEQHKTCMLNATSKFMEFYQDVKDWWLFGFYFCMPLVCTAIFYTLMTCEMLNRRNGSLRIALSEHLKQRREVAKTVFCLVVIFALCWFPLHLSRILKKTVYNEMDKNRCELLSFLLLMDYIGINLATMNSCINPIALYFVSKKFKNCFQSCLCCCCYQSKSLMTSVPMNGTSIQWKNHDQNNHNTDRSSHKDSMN
# [3] = Pharmacokinetic study, intravenous, male CD-1 mice; type: in vivo
# [4] = human, s9
# [5] = mouse, s9
# wild-type ETB = settings: previous study; cited from earlier work
molecule,measurement,setting,value
Cc1cc(C)cc(C(=O)N(C)[C@H](Cc2ccc(-c3ccccc3)cc2)C(=O)N[C@@H](Cc2c[nH]c3ccccc23)C(=O)O)c1 [IRL2500],selectivity for ETB (ETB/ETA),[1],50 ×
RES-701-3 T6E (peptide),fold reduction of affinity against RES-701-3,[2],50 fold
C[C@@H](O)[C@@H]1NC(=O)CNC(=O)[C@H](Cc2c[nH]cn2)NC(=O)[C@H](Cc2c[nH]c3ccccc23)NC(=O)[C@H](CC(N)=O)NC(=O)CNC(=O)C[C@@H](C(=O)N[C@@H](Cc2c[nH]c3ccccc23)C(=O)N[C@@H](Cc2ccccc2)C(=O)N[C@@H](Cc2ccccc2)C(=O)N[C@@H](CC(N)=O)C(=O)N[C@@H](Cc2ccc(O)cc2)C(=O)N[C@@H](Cc2ccc(O)cc2)C(=O)N[C@@H](Cc2c[nH]c3ccccc23)C(=O)O)NC(=O)[C@@H]2CCCN2C(=O)[C@H](CO)NC1=O [RES-701-3] (GNWHGTSPDWFFNYYW-OH; lactam N-9 (inferred)),activity against ETA,human recombinant ETAR,no activity
same,half-life,"[3]; mouse, in vivo, iv, 3 mg/kg, t1/2, 3 mg/kg IV, male CD-1 mice",> 6 h
same,half-life,[4],> 6 h
same,half-life,[5],> 6 h
"CCCC[C@@H](NC(=O)[C@@H](Cc1cn(C(=O)OC)c2ccccc12)NC(=O)[C@H](CC(C)(C)C)NC(=O)N1[C@H](C)CCC[C@@H]1C)C(=O)O [BQ-788, Dmpc-γ-MeLeul-D-Trp(1-CO2CH3)-D-Nle-OH, reference compound]",half-life compared with RES-701-3,"[3]; same experiment, IV, mice",nearly tenfold lower half-life
COc1ccccc1Oc1c(NS(=O)(=O)c2ccc(C(C)(C)C)cc2)nc(-c2ncccn2)nc1OCCO [Bosentan],effect on receptor activation level of wild-type ETB,wild-type ETB,does not change the receptor activation level
